Data taken from the NIST ThermoML archive (doi:10.1016/j.tca.2006.07.010).
± gives the expanded uncertainty stated by the source.

What was measured:
[1] = molar heat capacity at constant pressure; conditions: 298 K; 101.33 kPa; Crystal; Small sample (50 mg) DSC
[2] = Crystal; for mass density: 298 K, 101.33 kPa, Pycnometric method; for Triple point temperature: DTA
[3] = Molar enthalpy of transition or fusion; conditions: Crystal; DSC

molar heat capacity at constant pressure [1] [J/K/mol] | mass density [2] [kg/m3] | Triple point temperature [2] [K] | Molar enthalpy of transition or fusion [3] [kcal/mol] | Compound
222.5 ± 4.5 | 1170 ± 10 | 371.47 ± 0.39 | 5.76 ± 0.198 | CC(C)c1ccc2occ(C=O)c(=O)c2c1 [3-formyl-6-isopropylchromone]
121.04 ± 2.4 | 1700 ± 10 | 424.89 ± 0.39 | 6.06 ± 0.136 | O=Cc1coc2ccccc2c1=O [3-formylchromone]
178.96 ± 3.6 | 1470 ± 10 | 444.45 ± 0.39 | 6.41 ± 0.189 | Cc1ccc2occ(C=O)c(=O)c2c1 [3-formyl-6-methylchromone]
